Experimental data: patent US9260439B2, “Dihydropyrrolopyrimidine derivatives” (PFIZER INC., priority 2014, dated 2016)

Each molecule was assayed against truncated PI3Kα (p110α/iSH2 p85α) (Homo sapiens (Human), UniProt P42336) (assay: PI3KA_Act fluorescence polarization kinase assay (Ki)). Conditions: 1 mM ATP.
Format: biochemical
How it was run: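 p110α/iSH2 p85α (0.5 nM) was reacted with 30 μM sonicated PIP2 in 50 mM HEPES pH 7.4, 150 mM NaCl, 5 mM MgCl2, 1 mM DTT and 0.05% CHAPS for 30 min at room temperature, then stopped with EDTA. PIP3 was detected by fluorescence polarization (GST-Grp1 PH domain/TAMRA-PIP3), and Ki came from a Morrison tight-binding fit.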

truncated PI3Kα (p110α/iSH2 p85α), sequence (P42336 whole entry, the tested form may be a part): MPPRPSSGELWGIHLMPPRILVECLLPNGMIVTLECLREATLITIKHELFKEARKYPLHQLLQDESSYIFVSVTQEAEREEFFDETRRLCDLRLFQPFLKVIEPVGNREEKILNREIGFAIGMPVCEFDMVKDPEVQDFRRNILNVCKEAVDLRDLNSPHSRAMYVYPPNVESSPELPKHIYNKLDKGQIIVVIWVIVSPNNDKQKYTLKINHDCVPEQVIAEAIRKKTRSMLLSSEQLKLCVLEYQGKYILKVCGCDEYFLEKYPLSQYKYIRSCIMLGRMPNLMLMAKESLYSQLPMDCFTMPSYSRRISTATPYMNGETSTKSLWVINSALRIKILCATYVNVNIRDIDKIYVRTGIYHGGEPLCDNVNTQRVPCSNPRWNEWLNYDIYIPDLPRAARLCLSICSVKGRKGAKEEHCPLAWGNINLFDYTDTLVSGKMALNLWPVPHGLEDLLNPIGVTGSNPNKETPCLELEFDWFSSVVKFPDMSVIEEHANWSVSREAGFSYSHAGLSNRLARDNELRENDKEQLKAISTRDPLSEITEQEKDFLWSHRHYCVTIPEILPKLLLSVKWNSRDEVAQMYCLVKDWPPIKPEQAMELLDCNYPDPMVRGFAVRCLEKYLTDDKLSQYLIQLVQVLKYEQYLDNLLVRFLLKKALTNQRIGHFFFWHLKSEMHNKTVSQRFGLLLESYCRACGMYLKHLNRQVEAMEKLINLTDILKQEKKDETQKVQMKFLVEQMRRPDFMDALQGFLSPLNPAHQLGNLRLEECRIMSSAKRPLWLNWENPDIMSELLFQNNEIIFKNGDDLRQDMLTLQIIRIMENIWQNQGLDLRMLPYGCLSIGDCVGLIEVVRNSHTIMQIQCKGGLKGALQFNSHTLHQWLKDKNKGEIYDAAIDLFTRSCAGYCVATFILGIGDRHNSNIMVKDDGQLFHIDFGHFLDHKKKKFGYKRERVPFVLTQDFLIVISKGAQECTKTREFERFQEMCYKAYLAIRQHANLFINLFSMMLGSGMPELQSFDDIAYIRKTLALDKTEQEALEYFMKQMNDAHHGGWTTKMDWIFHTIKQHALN

Row | Molecule | PI3KA_Act Ki | Ki
1 | C[C@]1(N2CCc3c(-c4cnc(N)nc4)nc(N4CCOCC4)nc32)CCN(C(=O)c2cn[nH]c2)C1 [Example 387, {(3S)-3-[4-(2-aminopyrimidin-5-yl)-2-(morpholin-4-yl)-5,6-dihydro-7H-pyrrolo[2,3-d]pyrimidin-7-yl]-3-methylpyrrolidin-1-yl}(1H-pyrazol-4-yl)methanone] | <0.018 nM | –
2 | C[C@H]1COCCN1c1nc(-c2cnc(N)nc2)c2c(n1)N(C1CN(P(C)(C)=O)C1)CC2 [Example 166] | 0.280 nM | –
3 | C[C@H]1COCCN1c1nc(-c2cnc(N)nc2)c2c(n1)N([C@@]1(C)CCN(C(=O)[C@](C)(N)CO)C1)CC2.Cl [Example 485, (2R)-2-amino-1-[(3S)-3-{4-(2-aminopyrimidin-5-yl)-2-[(3S)-3-methylmorpholin-4-yl]-5,6-dihydro-7H-pyrrolo[2,3-d]pyrimidin-7-yl}-3-methylpyrrolidin-1-yl]-3-hydroxy-2-methylpropan-1-one hydrochloride] | <0.018 nM | –
4 | C[C@H]1COCCN1c1nc(-c2cnc(N)nc2)c2c(n1)N(C1CN(S(=O)(=O)C3CN(C(=O)OC(C)(C)C)C3)C1)CC2 [Example 207] | 0.100 nM | –
5 | tert-butyl (cis-3-{4-(2-aminopyrimidin-5-yl)-2-[(3S)-3-methylmorpholin-4-yl]-5,6-dihydro-7H-pyrrolo[2,3-d]pyrimidin-7-yl}cyclobutyl)methylcarbamate [Example 448] | 0.690 nM | –
6 | CN(C)C(=O)CN1CC[C@@](C)(N2CCc3c(-c4cnc(N)nc4)nc(N4CCOCC4)nc32)C1 [Example 402, 2-{(3R)-3-[4-(2-aminopyrimidin-5-yl)-2-(morpholin-4-yl)-5,6-dihydro-7H-pyrrolo[2,3-d]pyrimidin-7-yl]-3-methylpyrrolidin-1-yl}-N,N-dimethylacetamide] | 0.872 nM | –
7 | CC(C)OC(=O)N1CC[C@@](C)(N2CCc3c(-c4cnc(N)nc4)nc(N4CCOCC4)nc32)C1 [Example 407, propan-2-yl (3R)-3-[4-(2-aminopyrimidin-5-yl)-2-(morpholin-4-yl)-5,6-dihydro-7H-pyrrolo[2,3-d]pyrimidin-7-yl]-3-methylpyrrolidine-1-carboxylate] | 0.235 nM | –
8 | CC1(C)CN=C(N2CC[C@](C)(N3CCc4c(-c5cnc(N)nc5)nc(N5CCOCC5)nc43)C2)O1 [Example 8, 5-{7-[(3S)-1-(5,5-dimethyl-4,5-dihydro-1,3-oxazol-2-yl)-3-methylpyrrolidin-3-yl]-2-(morpholin-4-yl)-6,7-dihydro-5H-pyrrolo[2,3-d]pyrimidin-4-yl}pyrimidin-2-amine] | 0.019 nM | –
9 | Nc1ncc(-c2nc(N3CCOCC3)nc3c2CCN3C23CC(C2)C3)cn1 [Example 158] | 0.200 nM | –
10 | C[C@]1(N2CCc3c(-c4cnc(N)nc4)nc(N4CCOCC4)nc32)CCNC1=O [Example 258, (3S)-3-[4-(2-aminopyrimidin-5-yl)-2-(morpholin-4-yl)-5,6-dihydro-7H-pyrrolo[2,3-d]pyrimidin-7-yl]-3-methylpyrrolidin-2-one] | 31.787 nM | –
11 | C[C@]1(N2CCc3c(-c4cnc(N)nc4)nc(N4CCOCC4)nc32)CCN(C(=O)[C@@H](N)CF)C1.Cl [Example 293, (2R)-2-amino-1-{(3S)-3-[4-(2-aminopyrimidin-5-yl)-2-(morpholin-4-yl)-5,6-dihydro-7H-pyrrolo[2,3-d]pyrimidin-7-yl]-3-methylpyrrolidin-1-yl}-3-fluoropropan-1-one hydrochloride] | 0.086 nM | –
12 | CC(C)C(=O)N1CC[C@@](C)(N2CCc3c(-c4cnc(N)nc4)nc(N4CCOCC4)nc32)C1 [Example 263, 1-{(3R)-3-[4-(2-aminopyrimidin-5-yl)-2-(morpholin-4-yl)-5,6-dihydro-7H-pyrrolo[2,3-d]pyrimidin-7-yl]-3-methylpyrrolidin-1-yl}-2-methylpropan-1-one] | 0.122 nM | –
13 | C[C@H]1COCCN1c1nc(-c2cnc(N)nc2)c2c(n1)N([C@H]1CCN(P(C)(C)=O)C1)CC2 [Example 168] | 0.297 nM | –
14 | CN(CC(C)(C)N1CCc2c(-c3cnc(N)nc3)nc(N3CCOCC3)nc21)S(C)(=O)=O [Example 217] | 0.191 nM | –
15 | C[C@H]1COCCN1c1nc(-c2cnc(N)nc2)c2c(n1)N([C@@]1(C)CN(C(=O)OC(C)(C)C)C[C@@H]1C)CC2 [Example 511, tert-butyl (3R,4S)-3-{4-(2-aminopyrimidin-5-yl)-2-[(3S)-3-methylmorpholin-4-yl]-5,6-dihydro-7H-pyrrolo[2,3-d]pyrimidin-7-yl}-3,4-dimethylpyrrolidine-1-carboxylate] | 0.915 nM | –
16 | CC(C)N1CC[C@](C)(N2CCc3c(-c4cnc(N)nc4)nc(N4CCOCC4)nc32)C1 [Example 420, 5-{7-[(3S)-3-methyl-1-(propan-2-yl)pyrrolidin-3-yl]-2-(morpholin-4-yl)-6,7-dihydro-5H-pyrrolo[2,3-d]pyrimidin-4-yl}pyrimidin-2-amine] | 0.601 nM | –
17 | CCOC(=O)C(C)C(=O)N1CC[C@](C)(N2CCc3c(-c4cnc(N)nc4)nc(N4CCOCC4)nc32)C1 (stereo partly drawn) [Example 321, ethyl 3-{(3S)-3-[4-(2-aminopyrimidin-5-yl)-2-(morpholin-4-yl)-5,6-dihydro-7H-pyrrolo[2,3-d]pyrimidin-7-yl]-3-methylpyrrolidin-1-yl}-2-methyl-3-oxopropanoate] | 0.042 nM | –
18 | COC(=O)N1CC[C@](C)(N2CCc3c(-c4cnc(N)nc4)nc(N4CCOCC4)nc32)C1 [Example 213] | 0.030 nM | –
19 | Nc1ncc(-c2nc(N3CCOC[C@@H]3CO)nc3c2CCN3C2CC(F)(F)C2)cn1 [Example 171] | 2.745 nM | –
20 | CC(C)(O)C(=O)N1CC(C)(N2CCc3c(-c4cnc(N)nc4)nc(N4CCOCC4)nc32)C1 [Example 242, 1-{3-[4-(2-aminopyrimidin-5-yl)-2-(morpholin-4-yl)-5,6-dihydro-7H-pyrrolo[2,3-d]pyrimidin-7-yl]-3-methylazetidin-1-yl}-2-hydroxy-2-methylpropan-1-one] | 0.158 nM | –
21 | C[C@]1(N2CCc3c(-c4cnc(N)nc4)nc(N4CCOCC4)nc32)CCN(C(=O)CC(F)(F)F)C1 [Example 309, 1-{(3S)-3-[4-(2-aminopyrimidin-5-yl)-2-(morpholin-4-yl)-5,6-dihydro-7H-pyrrolo[2,3-d]pyrimidin-7-yl]-3-methylpyrrolidin-1-yl}-3,3,3-trifluoropropan-1-one] | 0.056 nM | –
22 | C[C@H]1COCCN1c1nc(-c2cnc(N)nc2)c2c(n1)N([C@@]1(C)CCN(C(=O)C3(CN)CC3)C1)CC2.Cl [Example 493, [1-(aminomethyl)cyclopropyl][(3S)-3-{4-(2-aminopyrimidin-5-yl)-2-[(3S)-3-methylmorpholin-4-yl]-5,6-dihydro-7H-pyrrolo[2,3-d]pyrimidin-7-yl}-3-methylpyrrolidin-1-yl]methanone hydrochloride] | 0.061 nM | –
23 | Cn1ccc(C(=O)N2CC[C@](C)(N3CCc4c(-c5cnc(N)nc5)nc(N5CCOCC5)nc43)C2)n1 [Example 391, {(3S)-3-[4-(2-aminopyrimidin-5-yl)-2-(morpholin-4-yl)-5,6-dihydro-7H-pyrrolo[2,3-d]pyrimidin-7-yl]-3-methylpyrrolidin-1-yl}(1-methyl-1H-pyrazol-3-yl)methanone] | 0.022 nM | –
24 | CC(C)(C)OC(=O)N1CCC(C)(N2CCc3c(-c4cnc(N)nc4)nc(N4CCOCC4)nc32)CC1 [Example 433, tert-butyl 4-[4-(2-aminopyrimidin-5-yl)-2-(morpholin-4-yl)-5,6-dihydro-7H-pyrrolo[2,3-d]pyrimidin-7-yl]-4-methylpiperidine-1-carboxylate] | 0.024 nM | –
25 | C[C@H]1COCCN1c1nc(-c2cnc(N)nc2)c2c(n1)N([C@]1(C)CCNC1)CC2.Cl [Example 466, 5-{2-[(3S)-3-methylmorpholin-4-yl]-7-[(3R)-3-methylpyrrolidin-3-yl]-6,7-dihydro-5H-pyrrolo[2,3-d]pyrimidin-4-yl}pyrimidin-2-amine hydrochloride] | 0.303 nM | –
26 | C[C@]1(N2CCc3c(-c4cnc(N)nc4)nc(N4CCOCC4)nc32)CCN(C(=O)C2(N)CCOC2)C1.Cl (stereo partly drawn) [Example 380, {(3S)-3-[4-(2-aminopyrimidin-5-yl)-2-(morpholin-4-yl)-5,6-dihydro-7H-pyrrolo[2,3-d]pyrimidin-7-yl]-3-methylpyrrolidin-1-yl}(3-aminotetrahydrofuran-3-yl)methanone hydrochloride] | 0.030 nM | –
27 | CC(C)(CO)N1CCc2c(-c3cnc(N)nc3)nc(N3CCOCC3)nc21 [Example 183] | 0.393 nM | –
28 | CS(=O)(=O)N1C[C@@H]2C[C@H]1[C@H]2N1CCc2c(-c3cnc(N)nc3)nc(N3CCOCC3)nc21 [Example 441, 5-{7-[(1S,4S,5S)-2-(methylsulfonyl)-2-azabicyclo[2.1.1]hex-5-yl]-2-(morpholin-4-yl)-6,7-dihydro-5H-pyrrolo[2,3-d]pyrimidin-4-yl}pyrimidin-2-amine] | – | 0.432 nM
29 | CC(C)(C(N)=O)N1CC[C@](C)(N2CCc3c(-c4cnc(N)nc4)nc(N4CCOCC4)nc32)C1 [Example 424, 2-{(3S)-3-[4-(2-aminopyrimidin-5-yl)-2-(morpholin-4-yl)-5,6-dihydro-7H-pyrrolo[2,3-d]pyrimidin-7-yl]-3-methylpyrrolidin-1-yl}-2-methylpropanamide] | 0.321 nM | –
